We go through 25 compounds from patent US10227357B2, “Compounds and methods for kinase modulation, and indications therefor” (Plexxikon Inc., priority 2012, dated 2019).

Structures are written as SMILES.

For one assay, the target named is T1, c-kit kinase (Homo sapiens, UniProt P10721).
T1 construct: The c-kit (or kinase domain thereof) is an active kinase in AlphaScreen; poly-Histidine tag (in-house protein only) (cleaved yes); host or cells: E. coli BL21(DE3)RIL, co-expressed with PTP1B
Briefly: c-Kit biochemical assay, AlphaScreen, 10 μM ATP. To be noted: c-kit biochemical inhibitory activity; read-out: Biochemical activity (IC50 μM) Kit. The essentials:
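His-tagged c-Kit expressed in E. coli with co-expressed PTP1B (dephosphorylated), tag removed; 0.1 ng per reaction with biotinylated-peptide substrate in 50 mM HEPES pH 7.2, 5 mM MgCl2, 5 mM MnCl2, 5% DMSO, 10 μM ATP, 1 h at room temperature. Phosphorylation detected by AlphaScreen (streptavidin donor, PY20 acceptor beads); IC50 from 8-point 1:3 dilution series.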
On the technique in general: Bead proximity is the source of the signal in Alpha formats.

The target in the next assay is T2, c-kit mutant D816V (Homo sapiens, UniProt P10721, D816V/DEL694-753).
T2 construct: residues 551-934, kinase insertion domain residues 694-753 deleted; 6x-histidine (N); made in house; host or cells: E. coli Arctic Express (DE3) RIL (Stratagene)
Briefly: c-Kit mutant D816V biochemical assay, AlphaScreen. Conditions: c-kit D816V biochemical inhibitory activity; read-out: Biochemical activity (IC50 μM) Kit D816V. The procedure, abridged: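 Eight-point, threefold compound series incubated 30 min at room temperature with E. coli-produced D816V kinase, 10 μM ATP, Mg2+/Mn2+ HEPES buffer pH 7.2 and 5% DMSO. After EDTA stop, streptavidin and anti-phosphotyrosine (PY20) AlphaScreen beads gave the read-out, and IC50 was fitted from the concentration–signal curve.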

T1 sequence (P10721 26-976): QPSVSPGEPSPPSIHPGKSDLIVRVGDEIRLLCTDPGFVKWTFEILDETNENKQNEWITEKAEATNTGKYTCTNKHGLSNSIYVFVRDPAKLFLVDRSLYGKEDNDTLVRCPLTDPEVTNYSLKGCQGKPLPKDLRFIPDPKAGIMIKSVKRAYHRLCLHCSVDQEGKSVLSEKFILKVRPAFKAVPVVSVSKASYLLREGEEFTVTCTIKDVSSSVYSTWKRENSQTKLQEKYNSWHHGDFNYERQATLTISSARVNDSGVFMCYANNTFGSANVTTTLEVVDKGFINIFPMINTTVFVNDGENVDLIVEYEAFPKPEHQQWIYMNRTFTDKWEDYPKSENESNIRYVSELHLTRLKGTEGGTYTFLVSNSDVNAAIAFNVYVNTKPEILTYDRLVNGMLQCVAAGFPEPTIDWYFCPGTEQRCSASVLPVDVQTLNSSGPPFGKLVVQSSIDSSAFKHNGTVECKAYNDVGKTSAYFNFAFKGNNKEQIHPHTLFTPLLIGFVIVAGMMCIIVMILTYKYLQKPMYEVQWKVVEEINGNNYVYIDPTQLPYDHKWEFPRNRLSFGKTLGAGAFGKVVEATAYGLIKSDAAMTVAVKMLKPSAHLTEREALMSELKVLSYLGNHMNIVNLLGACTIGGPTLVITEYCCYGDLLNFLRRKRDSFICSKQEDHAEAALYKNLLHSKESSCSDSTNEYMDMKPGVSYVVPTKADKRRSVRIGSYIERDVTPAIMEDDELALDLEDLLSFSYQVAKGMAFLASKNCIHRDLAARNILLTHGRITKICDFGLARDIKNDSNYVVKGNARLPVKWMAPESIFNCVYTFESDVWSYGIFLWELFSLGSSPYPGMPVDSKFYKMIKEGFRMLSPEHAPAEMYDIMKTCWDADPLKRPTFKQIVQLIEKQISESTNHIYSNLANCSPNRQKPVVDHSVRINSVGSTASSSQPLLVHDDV
T2 sequence (P10721 with tags, fused parts or gaps DEL694-753/D816V): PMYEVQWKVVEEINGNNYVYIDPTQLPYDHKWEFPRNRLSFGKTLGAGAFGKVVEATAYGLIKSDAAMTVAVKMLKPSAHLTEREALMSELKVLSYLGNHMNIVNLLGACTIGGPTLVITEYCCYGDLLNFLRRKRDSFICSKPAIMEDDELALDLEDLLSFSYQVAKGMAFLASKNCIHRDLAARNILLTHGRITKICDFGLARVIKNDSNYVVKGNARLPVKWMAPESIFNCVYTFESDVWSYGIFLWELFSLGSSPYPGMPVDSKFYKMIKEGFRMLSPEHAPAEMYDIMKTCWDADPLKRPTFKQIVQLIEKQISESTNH

With `CS(=O)(=O)Nc1ccc(-c2ncnc3cc(C4=CCN(C(=O)C5CC5)CC4)sc23)cc1` [P-0572, N-[4-[6-[1-(cyclopropanecarbonyl)-3,6-dihydro-2H-pyridin-4-yl]thieno[3,2-d]pyrimidin-4-yl]phenyl]methanesulfonamide], the half-inhibitory concentration (IC50) on c-kit kinase and at c-kit mutant D816V was 0.0001 to 1 µM throughout.
For the compound `C[C@H](NC(=O)N1CC=C(c2ncnc3cc(-c4ccc(F)cc4)sc23)CC1)c1cccc(OC(F)F)c1` [P-0573, N-[(1S)-1-[3-(difluoromethoxy)phenyl]ethyl]-4-[6-(4-fluorophenyl)thieno[3,2-d]pyrimidin-4-yl]-3,6-dihydro-2H-pyridine-1-carboxamide], the IC50 (usually the midpoint of a concentration-inhibition curve) fell in the range of 10 to 200 µM at c-kit kinase and 1 to 10 µM on c-kit mutant D816V.
The matching figures for `COc1cccc([C@H](C)NC(=O)N2CCN(c3ncnc4cc(C5=CC(C)(C)NC(C)(C)C5)sc34)CC2)c1` [P-0574, N-[(1S)-1-(3-methoxyphenyl)ethyl]-4-[6-(2,2,6,6-tetramethyl-1,3-dihydropyridin-4-yl)thieno[3,2-d]pyrimidin-4-yl]piperazine-1-carboxamide]: 1 to 10 µM and 0.0001 to 1 µM.
The matching figures for `C[C@H](NC(=O)N1CCN(c2ncnc3cc(-c4ccc(F)cc4)sc23)CC1(C)C)c1ccc(Cl)cc1` [P-0575, N-[(1S)-1-(4-chlorophenyl)ethyl]-4-[6-(4-fluorophenyl)thieno[3,2-d]pyrimidin-4-yl]-2,2-dimethyl-piperazine-1-carboxamide]: 10 to 200 µM and 0.0001 to 1 µM.
The matching figures for `COc1ccc([C@H](C)NC(=O)N2CCN(c3ncnc4cc(-c5ccc(F)cc5)sc34)CC2(C)C)cc1` [P-0576, 4-[6-(4-fluorophenyl)thieno[3,2-d]pyrimidin-4-yl]-N-[(1S)-1-(4-methoxyphenyl)ethyl]-2,2-dimethyl-piperazine-1-carboxamide]: 10 to 200 µM and 0.0001 to 1 µM.
Take `C[C@H](NC(=O)N1CCN(c2ncnc3cc(-c4ccc(F)cc4)sc23)CC1(C)C)c1cccc(OC(F)F)c1` [P-0577, N-[(1S)-1-[3-(difluoromethoxy)phenyl]ethyl]-4-[6-(4-fluorophenyl)thieno[3,2-d]pyrimidin-4-yl]-2,2-dimethyl-piperazine-1-carboxamide]: the IC50 on c-kit kinase was 10 to 200 µM; on c-kit mutant D816V, 0.0001 to 1 µM.
In the case of `C[C@H](NC(=O)N1CC=C(c2ncnc3cc(-c4ccc(F)cc4)sc23)CC1)c1cccc(Cl)c1` [P-0579, N-[(1S)-1-(3-chlorophenyl)ethyl]-4-[6-(4-fluorophenyl)thieno[3,2-d]pyrimidin-4-yl]-3,6-dihydro-2H-pyridine-1-carboxamide], the half-inhibitory concentration (IC50) fell in the range of 10 to 200 µM on c-kit kinase and 1 to 10 µM on c-kit mutant D816V.
The matching figures for `C[C@H](NC(=O)N1CCN(c2ncnc3cc(-c4ccc(F)cc4)sc23)CC1(C)C)c1cccc(Cl)c1` [P-0580, N-[(1S)-1-(3-chlorophenyl)ethyl]-4-[6-(4-fluorophenyl)thieno[3,2-d]pyrimidin-4-yl]-2,2-dimethyl-piperazine-1-carboxamide]: 10 to 200 µM and 0.0001 to 1 µM.
On the same counts, the results for `COc1cccc([C@H](C)NC(=O)N2CC=C(c3ncnc4cc(-c5ccc(F)cc5)sc34)CC2)c1` [P-0581, 4-[6-(4-fluorophenyl)thieno[3,2-d]pyrimidin-4-yl]-N-[(1S)-1-(3-methoxyphenyl)ethyl]-3,6-dihydro-2H-pyridine-1-carboxamide] are 1 to 10 µM and 0.0001 to 1 µM.
The matching figures for `COc1cccc([C@H](C)NC(=O)N2CC=C(c3ncnc4cc(-c5cn(C)nc5C)sc34)CC2)c1` [P-0582, 4-[6-(1,3-dimethylpyrazol-4-yl)thieno[3,2-d]pyrimidin-4-yl]-N-[(1S)-1-(3-methoxyphenyl)ethyl]-3,6-dihydro-2H-pyridine-1-carboxamide]: 1 to 10 µM and 0.0001 to 1 µM.
For the compound `Cc1ccc(S(=O)(=O)Nc2ccc(-c3ncnc4cc(C5=CCN(C(=O)C6CC6)CC5)sc34)cc2)cc1` [P-0583, N-[4-[6-[1-(cyclopropanecarbonyl)-3,6-dihydro-2H-pyridin-4-yl]thieno[3,2-d]pyrimidin-4-yl]phenyl]-4-methyl-benzenesulfonamide], the IC50 at c-kit kinase and at c-kit mutant D816V was 0.0001 to 1 µM each time.
For `Cc1nn(C)cc1-c1cc2ncnc(N3CCN(C(=O)N[C@@H](C)c4cccc(F)c4)[C@H](C)C3)c2s1` [P-0584, (2R)-4-[6-(1,3-dimethylpyrazol-4-yl)thieno[3,2-d]pyrimidin-4-yl]-N-[(1S)-1-(3-fluorophenyl)ethyl]-2-methyl-piperazine-1-carboxamide], the IC50 was 1 to 10 µM at c-kit kinase and 0.0001 to 1 µM at c-kit mutant D816V.
On the same counts, the results for `C[C@H](NC(=O)N1CCN(c2ncnc3cc(-c4ccc(F)cc4)sc23)C[C@H]1C)c1cccc(F)c1` [P-0585, (2R)-N-[(1S)-1-(3-fluorophenyl)ethyl]-4-[6-(4-fluorophenyl)thieno[3,2-d]pyrimidin-4-yl]-2-methyl-piperazine-1-carboxamide] are 1 to 10 µM and 1 to 10 µM.
On the same counts, the results for `C[C@H](NC(=O)N1CCN(c2ncnc3cc(-c4ccc(F)cc4)sc23)C[C@H]1C)c1cccc(OC(F)F)c1` [P-0586, (2R)-N-[(1S)-1-[3-(difluoromethoxy)phenyl]ethyl]-4-[6-(4-fluorophenyl)thieno[3,2-d]pyrimidin-4-yl]-2-methyl-piperazine-1-carboxamide] are 1 to 10 µM and 0.0001 to 1 µM.
On the same counts, the results for `Cc1nn(C)cc1-c1cc2ncnc(N3CCN(C(=O)N[C@@H](C)c4cccc(OC(F)F)c4)[C@H](C)C3)c2s1` [P-0587, (2R)-N-[(1S)-1-[3-(difluoromethoxy)phenyl]ethyl]-4-[6-(1,3-dimethylpyrazol-4-yl)thieno[3,2-d]pyrimidin-4-yl]-2-methyl-piperazine-1-carboxamide] are 10 to 200 µM and 0.0001 to 1 µM.
Regarding `O=C(NCc1ccc(F)cc1)N1CCN(c2ncnc3cc(C4CCN(C(=O)C5CC5)CC4)sc23)CC1` [P-0588, 4-[6-[1-(cyclopropanecarbonyl)-4-piperidyl]thieno[3,2-d]pyrimidin-4-yl]-N-[(4-fluorophenyl)methyl]piperazine-1-carboxamide], the half-maximal inhibitory concentration (IC50) on c-kit kinase was in the range of 10 to 200 µM; at c-kit mutant D816V, 0.0001 to 1 µM.
The matching figures for `C[C@H](NC(=O)N1CCN(c2ncnc3cc(N4CCOCC4)sc23)CC1)c1ccc(F)cc1` [P-0589, N-[(1S)-1-(4-fluorophenyl)ethyl]-4-(6-morpholinothieno[3,2-d]pyrimidin-4-yl)piperazine-1-carboxamide]: 10 to 200 µM and 0.0001 to 1 µM.
Consider `Cc1ccc(S(=O)(=O)Nc2ccc(-c3ncnc4cc(C5=CCN(C(=O)N6CCOCC6)CC5)sc34)cc2)cc1` [P-0590, 4-methyl-N-[4-[6-[1-(morpholine-4-carbonyl)-3,6-dihydro-2H-pyridin-4-yl]thieno[3,2-d]pyrimidin-4-yl]phenyl]benzenesulfonamide], for which the IC50 at c-kit kinase and at c-kit mutant D816V was 0.0001 to 1 µM in each case.
For the compound `Cc1nn(C)cc1-c1cc2ncnc(N3CCN(C(=O)N[C@@H](C)c4cccc(Cl)c4)[C@H](C)C3)c2s1` [P-0591, (2R)-N-[(1S)-1-(3-chlorophenyl)ethyl]-4-[6-(1,3-dimethylpyrazol-4-yl)thieno[3,2-d]pyrimidin-4-yl]-2-methyl-piperazine-1-carboxamide], the half-inhibitory concentration (IC50) was 10 to 200 µM on c-kit kinase and 0.0001 to 1 µM at c-kit mutant D816V.
On the same counts, the results for `Cc1ccc(S(=O)(=O)Nc2ccc(-c3ncnc4cc(C5CCNCC5)sc34)cc2)cc1` [P-0592, 4-methyl-N-[4-[6-(4-piperidyl)thieno[3,2-d]pyrimidin-4-yl]phenyl]benzenesulfonamide] are 10 to 200 µM and 0.0001 to 1 µM.
`C[C@H](NC(=O)N1CCN(c2ncnc3cc(-c4ccc(F)cc4)sc23)CC1(C)C)c1ccc(F)cc1` [P-0593, N-[(1S)-1-(4-fluorophenyl)ethyl]-4-[6-(4-fluorophenyl)thieno[3,2-d]pyrimidin-4-yl]-2,2-dimethyl-piperazine-1-carboxamide]: the results for the half-maximal inhibitory concentration (IC50) at c-kit kinase and on c-kit mutant D816V were 10 to 200 µM and 0.0001 to 1 µM, respectively.
As for `COc1cccc([C@H](C)NC(=O)N2CCN(c3ncnc4cc(-c5ccc(F)cc5)sc34)CC2(C)C)c1` [P-0594, 4-[6-(4-fluorophenyl)thieno[3,2-d]pyrimidin-4-yl]-N-[(1S)-1-(3-methoxyphenyl)ethyl]-2,2-dimethyl-piperazine-1-carboxamide], the values for the IC50 at c-kit kinase and on c-kit mutant D816V were 1 to 10 µM and 0.0001 to 1 µM, respectively.
The matching figures for `CC1(C)CN(c2ncnc3cc(-c4ccc(F)cc4)sc23)CCN1` [P-0595, 4-(3,3-dimethylpiperazin-1-yl)-6-(4-fluorophenyl)thieno[3,2-d]pyrimidine]: 10 to 200 µM and 10 to 200 µM.
The matching figures for `O=C(NCc1ccc(F)cc1)N1CCN(c2ncnc3cc(C4CCNCC4)sc23)CC1` [P-0596, N-[(4-fluorophenyl)methyl]-4-[6-(4-piperidyl)thieno[3,2-d]pyrimidin-4-yl]piperazine-1-carboxamide]: 10 to 200 µM and 1 to 10 µM.
The matching figures for `COc1cccc([C@H](C)NC(=O)N2CCN(c3ncnc4cc(-c5cn(C)nc5C)sc34)C[C@H]2C)c1` [P-0598, (2R)-4-[6-(1,3-dimethylpyrazol-4-yl)thieno[3,2-d]pyrimidin-4-yl]-N-[(1S)-1-(3-methoxyphenyl)ethyl]-2-methyl-piperazine-1-carboxamide]: 1 to 10 µM and 0.0001 to 1 µM.
